Laboratory results taken from US9618524B2, “Method, composition, isolation and identification of a plaque particle and related biomarker” (Plaxgen Inc., priority 2012, dated 2017).

Legend:
Test in all cases: Mass spectroscopy proteomics, semi-quantitative binding affinity of serum proteins (plaqueproteome, Table 2)
Conditions in all cases: higher number = stronger affinity
[1] = test system: Low density cholesterol (Chl small) plaque particles; parameters: species or system human
Procedure: (§1) The goal was to isolate plaque particles synthesized in the bio-fluids in a relatively pure form to enable their subsequent use for identification of components that contribute to the plaque formation. In order to isolate cholesterol plaque particles, the plasma or serum samples obtained from atherosclerotic subjects were first centrifuged at 5,000 rpm for 5 min and the supernatants were transferred to new centrifuge tubes. Next, the supernatants were diluted in PBS to make 50% of the serum and used for incubation with cholesterol oligomers/aggregates. Each assay was performed in 1 mL reaction (800 μL of 50% plasma or serum) and 200 μL (30 μg) of the Cholesterol aggregates and the mixtures were incubated at 37° C. for 1 hr After the incubation, the mixture was directly used for sample acquisition using flow cytometer (FACS ARIA II, BD Biosciences, San Jose, Calif.). […] In order to isolate these fractions, three sets of gates were drawn in the acquisition blot to separately sort and isolate High density or high complex cholesterol particles, Low density or low complex cholesterol particles and both High and low density cholesterol particles together.
(§2) For preparing trypsin digested peptide sequences, the isolated plaque particles were centrifuged at 10000 rpm for 5 min and the pellet containing plaque particles was resuspended in 100 μl PBS buffer. Stock solutions of digestion buffer (Ammonium Biocarbonate 50 mM), reducing buffer (DDT 100 mM) and alkylation buffer (lodoaceamide 100 mM) were prepared and stored at −20° C. for up to two months. For trypsin digestion, 100 μl of each plaque particles (2000 of Abeta-42, cholesterol, Tau and alpha-synuclein) were precipitated using cold acetone −80° C. by adding 4X's the volume. The samples were placed on dry ice for 10 min with intermittent vortex. Next, the samples were centrifuged at 4° C. at 10000 G for 10 min. Top layer of acetone was carefully removed from the tube with care not to disturb the plaque particles pellet. The samples were speed-vac for 10 min to ensure all acetone has been boiled away. The plaque particles pellet were reconstituted with 15 μl 8M Urea 100 mM Ammonium bicarbonate stock and 20 μl protease max solution. The protease max solution (Promega, Madison, Wis.) was prepared from stock by adding 60 μl 50 mM Ammonium bicarbonate and used for 3 solution digests (20 μl each). […] The tubes were incubated at 55° C. for 30 minutes. The tubes were then removed and brought to the room temperature followed by addition of 3.2 μl of 1M acrylamide and incubated at room temperature for 30 minutes. To the sample, 63 μL of 50 mM Ammonium bicarbonate was added for a final volume of 98 μl and 2 μl of trypsin (10 μg, Trypsin/Lys C Mix). After mixing the solution with pipet the samples were incubated at 37° C. overnight. After the overnight digest, the tryptic digest were quenched and acidified by adding 10 μl of 50% formic acid/water stock dilution. The samples were centrifuged at 10000 G for 2 minutes and purified using stage tip and used for MS/Mass analysis.
(§3) All MS/MS samples were analyzed using Sequest (Thermo Fisher Scientific, San Jose, Calif., USA; version 1.0). Sequest was set up to search the SUMS_uniprot_Human database (35847 entries) assuming the digestion enzyme strict trypsin. Sequest was searched with a fragment ion mass tolerance of 1.00 Da and a parent ion tolerance of 20 PPM. Propionamide of cysteine was specified in Sequest as a fixed modification. Oxidation of methionine and phospho of serine, threonine and tyrosine were specified in Sequest as variable modifications.
(§4) Scaffold (version Scaffold_4.2.1, Proteome Software Inc., Portland, Oreg.) was used to validate MS/MS based peptide and protein identifications. […] Protein probabilities were assigned by the Protein Prophet algorithm (Nesvizhskii, Al et al 2003).

[2] = test system: High Density cholesterol (Chl Large) plaque particles; parameters: species or system human
Procedure: as §1, §2, §3, §4

[3] = test system: Tau plaque particles; parameters: species or system human
Procedure: For Tau-74 (74-102) (Exon 3/Insert 2 domain) preparation, 1 mg of Tau-74 was suspended in 1 mL of PBS and the sample was incubated at 37° C. for 2 hrs. Similarly for preparing Tau-275 (275-305) (Repeat 2 domain) 1 mg of the peptide was suspended in 1 mL of PBS and the sample was incubated at 37° C. for 2 hrs. After incubation, all the samples were centrifuged for 5 min. at 5000 rpm to remove precipitate, if any, and the supernatant containing oligomers/aggregates were used for in vitro amyloid plaque particles formation assay. For detecting Tau plaque particles, Thioflavin S (Ex/Em=430 nm/550 nm) amyloid binding fluorescent dye (10 μg) was used in the assay.
Next, to isolate Tau plaque particles, as performed for Abeta-42 and Abeta-28 plaque particles isolation, diluted serum samples were used for incubation separately with Tau-45, Tau-74 and Tau-275 oligomers/aggregates. Each assay was performed in 1 mL reaction (800 μL of 50% plasma or serum) and 200 μL (30 μg) of each Tau aggregates and the mixtures were incubated at 37° C. for 1 hr. To the each mixture Thioflavin S dye (120 μg) was added and the sample was incubated for additional 30 min at 37° C. After the incubation, each sample was directly used for sample acquisition using flow cytometer (FACS ARIA II, BD Biosciences, San Jose, Calif.). After initial detection of Tau plaque particles, gates were drawn in the acquisition blot to separately sort and isolate fluorescently labeled Tau plaque particles.
as §2, §3

[4] = molecular target: T1, Abeta-42 plaque particles (Homo sapiens, UniProt P05067)
T1 construct: Abeta 1-42
Procedure: Next to isolate serum derived Abeta-42 plaque particles, the plasma or serum samples obtained from AD subjects were first centrifuged at 5,000 rpm for 5 min and the supernatants were transferred to new centrifuge tubes. Next, the supernatants were diluted in PBS to make 50% of the serum and plasma samples and used for incubation with Abeta-42 plaque oligomers/aggregates. Each assay was performed in 1 mL reaction (800 μL of 50% plasma or serum) and 200 μL (30 μg) of the Abeta-42 aggregates and the mixtures were incubated at 37° C. for 1 hr. To the mixture Thioflavin S dye (120 μg) was added and the sample was incubated for additional 30 min at 37° C. After the incubation, the mixture was directly used for sample acquisition using flow cytometer (FACS ARIA II, BD Biosciences, San Jose, Calif.). After initial detection of Abeta-42 plaque particles in the acquisition blot, gates were drawn in fluorescent dot blot to separately sort and isolate fluorescently labeled Abeta-42 particles.
as §2, §3
as §4, with “2003). […] Proteins sharing significant peptide evidence were grouped into clusters. Proteins were annotated with GO terms from NCBI (downloaded Jan. 17, 2014).” for “2003).”

[5] = molecular target: T2, alpha-synuclein plaque particles (Homo sapiens, UniProt P37840)
T2 construct: 140 amino acids polypeptide
Procedure: To prepare oligomers/aggregates of human alpha-synuclein (140 amino acids polypeptide), 1 mg of the recombinant alpha-synuclein protein was suspended in 1 mL of PBS and the sample was incubated at 37° C. for 2 hrs. After incubation, all the samples were centrifuged for 5 min. at 5000 rpm to remove precipitate, if any, and the supernatant containing oligomers/aggregates were used in vitro plaque particles formation assay. For detecting alpha-synuclein plaque particles Thioflavin S (Ex/Em=430 nm/550 nm) amyloid binding fluorescent dye (10 μg) was used.
Similarly, to isolate alpha-synuclein plaque particles, diluted plasma or serum samples obtained from AD subjects were used for incubation with alpha-synuclein plaque oligomers/aggregates. Each assay was performed in 1 mL reaction (800 μL of 50% plasma or serum) and 200 μL (30 μg) of the alpha-synuclein aggregates and the mixtures were incubated at 37° C. for 1 hr. To the mixture Thioflavin S dye (120 μg) was added and the sample was incubated for additional 30 min at 37° C. After the incubation, the mixture was directly used for sample acquisition using flow cytometer (FACS ARIA II, BD Biosciences, San Jose, Calif.). After initial detection of alpha-synuclein plaque particles, gates were drawn in the acquisition blot to separately sort and isolate fluorescently labeled alpha-synuclein particles.
as §2, §3
Scaffold (version Scaffold_4.2.1, Proteome Software Inc., Portland, Oreg.) was used to validate MS/MS based peptide and protein identifications.

Row | Substance | Semi-quantitative analysis of proteins binding to different plaque particles: Chl small [1] | Semi-quantitative analysis of proteins binding to different plaque particles: Chl Large [2] | Semi-quantitative analysis of proteins binding to different plaque particles: Tau [3] | Semi-quantitative analysis of proteins binding to different plaque particles: Abeta-42 [4] | Semi-quantitative analysis of proteins binding to different plaque particles: Synuclein [5]
1 | Immunoglobulin J chain | 1 | 1 | 1 | 0 | 2
2 | Complement C4-B | 35 | 44 | 52 | 32 | 37
3 | Ig kappa chain V-I region Wes | 1 | 2 | 2 | 2 | 2
4 | Myosin-6 | 0 | 0 | 0 | 17 | 0
5 | Antithrombin-III | 6 | 8 | 6 | 5 | 9
6 | POTE ankyrin domain family member E | 0 | 0 | 0 | 18 | 18
7 | Immunoglobulin lambda-like polypeptide 5 | 7 | 5 | 11 | 9 | 8
8 | Filaggrin-2 | 0 | 0 | 0 | 4 | 0
9 | Ig lambda-7 chain C region | 2 | 3 | 3 | 2 | 4
10 | Tubulin beta-4B chain | 0 | 0 | 5 | 0 | 0
11 | Ig heavy chain V-III region TEI | 5 | 4 | 4 | 5 | 3
12 | Apolipoprotein E | 9 | 7 | 13 | – | 8
13 | Cluster of Alpha-1-antitrypsin | 21 | 22 | 28 | – | 20
14 | Alpha-1-antitrypsin | 21 | 22 | 28 | – | 20
